Experimental data: US7491835B2, “Prodrugs of amino acids with affinity for the α2δ-protein” (Pfizer Inc, priority 2003, dated 2009)
One block for each compound: values may come before it.

Key:
in vitro = settings: human, Caco-2
Protocol: (§1) Mannitol was used as a negative marker since it appears to be absorbed through the paracellular rather than the transcellular pathway. Cell transport, and efflux studies were conducted with Caco-2 cells grown on Snapwells between 22 to 28 days postseeding. Typically, 10 mM MES buffer (pH 6.5) with 5 mM KCl, 135 mM NaCl, 1.8 mM CaCl2, and 5 mM D-glucose was used for the AP side and 10 mM MOPS (pH 7.4) with 5 mM KCl, 132.5 mM NaCl, 1.8 mM CaCl2, and 5 mM D-glucose was used for the BL side. After washing the monolayers, drug-free media at the appropriate pH (pH 7.4 or 6.5) were first added to both compartments to allow the cells to equilibrate for approximately 15 min at 37° C. Transport studies were then conducted using 1.5 mL of transport media in the apical side and 2.5 mL in the basolateral side. The donor solution containing the probe compound was added to either the apical or basolateral compartment. Plates were placed in a shaking incubator (Boekel Scientific, Feasterville, Pa.) at 37° C. during the experiments. Transport in both apical-to-basolateral (A-to-B) and basolateral-to-apical (B-to-A) directions was measured for each drug. Aliquots were removed from the nondosing compartment at predetermined time points and replaced with fresh medium to maintain a constant volume. During studies with radiolabeled compounds, 100 uL samples were taken at each time point. The apparent permeability coefficients (Papp) were calculated using the following equation: Papp=dQ/dtX1/CoX1/A, where dQ/dt is the permeability rate, Co is the initial concentration in the donor compartment, and A is the surface area of the membrane. Flux rates (dQ/dt×1/A) were calculated by plotting the amount transported per unit area as a function of time and determining the slope of the line using linear regression.

Caco-2 cells = assay: Caco-2 cell transport and efflux (permeability) study
Protocol: as §1

[1] = Vogel conflict model of anxiety; format: in vivo; settings: 30 mg/kg, PO
Excerpt: The In vivo activity of compounds of this invention can be determined in animal models of hyperalgesia (See Sluka, K., et al. 2001, “Unilateral Intramuscular Injections Of Acidic Saline Produce A Bilateral, Long-Lasting Hyperalgesia”, Muscle Nerve 24: 37-46; Dixon, W., 1980, “Efficient analysis of experimental observations”. Ann Rev Pharmacol Toxicol 20:441-462; Randall L. O. and Selitto J. J., “A Method For Measurement Of Analgesic Activity On Inflamed Tissue,” Arch. Int. Pharmacodyn, 1957;4:409-419; Hargreaves K., Dubner R., Brown F., Flores C., and Joris J. “A New And Sensitive Method For Measuring Thermal Nociception In Cutaneous Hyperalgesia”. Pain. 32:77-88, 1988.), anxiety (Vogel J. R., Beer B., and Clody D. E., “A Simple And Reliable Conflict Procedure For Testing Anti-Anxiety Agents”, Psychopharmacologia 21:1-7, 1971),
The In vivo activity of a compound of this invention was determined in an animal model of anxiety as set forth in Vogel J R, Beer B., and Clody D E, “A Simple And Reliable Conflict Procedure For Testing Anti-Anxiety Agents”, Psychopharmacologia 21:1-7, 1971).

Papp A→B (in vitro): 1.81 ×10⁻⁶ cm/s
Papp B→A (in vitro): 1.41 ×10⁻⁶ cm/s
efflux ratio (in vitro): 0.78
SMILES: OC[C@@H](O)[C@@H](O)[C@H](O)[C@H](O)CO [Mannitol]

SMILES: CCCC[C@@H](C)C[C@H](CNC(=O)[C@@H](N)CC(C)C)CC(=O)O [3S-[(2S-Amino-4-methyl-pentanoylamino)-methyl]-5R-methyl-nonanoic acid]
Substrate for efflux (Caco-2 cells; Caco-2, 10 uM, concluded from ratio B to A/A to B): unlikely to be a substrate for efflux
A to B Peff * 10^−6 (Caco-2 cells; Caco-2, apical to basal, apical pH 6.5, basolateral pH 7.4, 37° C.): 0.74 10^−6
Caco-2 permeability, apical to basolateral direction (Caco-2 cells; concentration of 10 uM): 0.74 ×10⁻⁶ cm/s

SMILES: CCC[C@@H](C)C[C@H](CNC(=O)[C@@H](N)CC(C)C)CC(=O)O [3S-[(2S-Amino-4-methyl-pentanoylamino)-methyl]-5R-methyl-octanoic acid]
Anxiolytic Activity, percent reference activity compared to pregabalin [1]: 138.10%

Papp A→B (in vitro): 8.74 ×10⁻⁶ cm/s
Papp B→A (in vitro): 20.3 ×10⁻⁶ cm/s
SMILES: COCCc1ccc(OCC(O)CNC(C)C)cc1 (stereo not drawn) [Metoprolol]
